According to paper PMC10620772, “Design, synthesis, and biological evaluation of new pyrimidine-5-carbonitrile derivatives as novel anti-cancer, dual EGFR^WT/COX-2 inhibitors with docking studies” (RSC Advances, 2023):

Legend:
Type in all cases: cell-based, human
A549/ATCC = test: NCI60 antitumor screening; settings: 10 μM one-dose
U251 = test: NCI60 antitumor screening; settings: 10 μM one-dose
MOLT-4 = test: NCI60 antitumor screening; settings: 10 μM one-dose
SK-OV-3 = test: NCI60 antitumor screening; settings: 10 μM one-dose
HCT-116 = test: NCI60 antitumor screening; settings: 10 μM one-dose
NCI-H226 = test: NCI60 antitumor screening; settings: 10 μM one-dose
MDA-MB-435 = test: NCI60 antitumor screening; settings: 10 μM one-dose
NCI/ADR-RES = test: NCI60 antitumor screening; settings: 10 μM one-dose
OVCAR-3 = test: NCI60 antitumor screening; settings: 10 μM one-dose
RPMI-8226 = test: NCI60 antitumor screening; settings: 10 μM one-dose
HOP-62 = test: NCI60 antitumor screening; settings: 10 μM one-dose
SNB-75 = test: NCI60 antitumor screening; settings: 10 μM one-dose
SR = test: NCI60 antitumor screening; settings: 10 μM one-dose
NCI-H23 = test: NCI60 antitumor screening; settings: 10 μM one-dose
NCI-H460 = test: NCI60 antitumor screening; settings: 10 μM one-dose
COLO 205 = test: NCI60 antitumor screening; settings: 10 μM one-dose
UO-31 = test: NCI60 antitumor screening; settings: 10 μM one-dose
M14 = test: NCI60 antitumor screening; settings: 10 μM one-dose
IGROV1 = test: NCI60 antitumor screening; settings: 10 μM one-dose
HCT-15 = test: NCI60 antitumor screening; settings: 10 μM one-dose
OVCAR-8 = test: NCI60 antitumor screening; settings: 10 μM one-dose
SK-MEL-2 = test: NCI60 antitumor screening; settings: 10 μM one-dose
BT-549 = test: NCI60 antitumor screening; settings: 10 μM one-dose
RXF 393 = test: NCI60 antitumor screening; settings: 10 μM one-dose
A498 = test: NCI60 antitumor screening; settings: 10 μM one-dose
CCRF-CEM = test: NCI60 antitumor screening; settings: 10 μM one-dose
MDA-MB-468 = test: NCI60 antitumor screening; settings: 10 μM one-dose
NCI60 cell lines panel = test: NCI60 antitumor screening, full panel; settings: 10 μM one-dose, mean over NCI60
Protocol: The National Cancer Institute (NCI), Bethesda, Maryland, United States, selected all of the novel synthesized compounds (2b–d, 3a–d and 4a–p) for in vitro antitumor screening at a single concentration of 10 μM toward the NCI60 cell lines panel covering leukaemia, non-small cell lungs, colon, central nervous system (CNS), melanoma, ovarian, renal, prostate, and breast cancer cells.[32–35] The data were reported as a mean graph of the percent growth of the treated cell lines and expressed as percentage growth inhibition (GI%) in Table 1 and ESI 1.
(2) The molar concentration of the compound responsible for total growth inhibition, also known as total growth inhibition (TGI).
Regarding subpanel selectivity toward certain cancer type, the method of determining a compound's selectivity index is to divide the full panel MG-MID (μM) value by each single subpanel. Values above six indicate high selectivity against the subpanel; moderate selectivity is denoted by values between three and six. Conversely, compounds are termed nonselective if their selectivity is less than three.[30,37]

HS 578T = test: NCI60 antitumor screening; settings: 10 μM one-dose
SK-MEL-28 = test: NCI60 antitumor screening; settings: 10 μM one-dose
HOP-92 = test: NCI60 antitumor screening; settings: 10 μM one-dose
SF-295 = test: NCI60 antitumor screening; settings: 10 μM one-dose
MDA-MB-231/ATCC = test: NCI60 antitumor screening; settings: 10 μM one-dose
786–0 = test: NCI60 antitumor screening; settings: 10 μM one-dose
LOX IMVI = test: NCI60 antitumor screening; settings: 10 μM one-dose
KM12 = test: NCI60 antitumor screening; settings: 10 μM one-dose
T-47D = test: NCI60 antitumor screening; settings: 10 μM one-dose
SN12C = test: NCI60 antitumor screening; settings: 10 μM one-dose
NCI-H522 = test: NCI60 antitumor screening; settings: 10 μM one-dose
HT29 = test: NCI60 antitumor screening; settings: 10 μM one-dose
SF-268 = test: NCI60 antitumor screening; settings: 10 μM one-dose
HL-60(TB) = test: NCI60 antitumor screening; settings: 10 μM one-dose
CAKI-1 = test: NCI60 antitumor screening; settings: 10 μM one-dose
UACC-257 = test: NCI60 antitumor screening; settings: 10 μM one-dose
TK-10 = test: NCI60 antitumor screening; settings: 10 μM one-dose
DU-145 = test: NCI60 antitumor screening; settings: 10 μM one-dose
SK-MEL-5 = test: NCI60 antitumor screening; settings: 10 μM one-dose
EKVX = test: NCI60 antitumor screening; settings: 10 μM one-dose
MCF7 = test: NCI60 antitumor screening; settings: 10 μM one-dose
SW-620 = test: NCI60 antitumor screening; settings: 10 μM one-dose
OVCAR-5 = test: NCI60 antitumor screening; settings: 10 μM one-dose
K-562 = test: NCI60 antitumor screening; settings: 10 μM one-dose
ACHN = test: NCI60 antitumor screening; settings: 10 μM one-dose
HCC-2998 = test: NCI60 antitumor screening; settings: 10 μM one-dose
MALME-3M = test: NCI60 antitumor screening; settings: 10 μM one-dose
SNB-19 = test: NCI60 antitumor screening; settings: 10 μM one-dose
SF-539 = test: NCI60 antitumor screening; settings: 10 μM one-dose
OVCAR-4 = test: NCI60 antitumor screening; settings: 10 μM one-dose
UACC-62 = test: NCI60 antitumor screening; settings: 10 μM one-dose
PC-3 = test: NCI60 antitumor screening; settings: 10 μM one-dose
NCI-H322M = test: NCI60 antitumor screening; settings: 10 μM one-dose

N#Cc1c(-c2ccc(F)cc2)nc(SCc2ccc(F)cc2)[nH]c1=O [2b, 2-((4-Fluorobenzyl)thio)-4-(4-fluorophenyl)-6-oxo-1,6-dihydropyrimidine-5-carbonitrile]
GI% (A549/ATCC): 15.77% | GI% (U251): 33.40% | GI% (MOLT-4): — (GI% < 10) | GI% (SK-OV-3): 26.25% | GI% (HCT-116): 33.39% | GI% (NCI-H226): 24.21% | GI% (NCI-H226; Table 1): — (GI value > 70%) | GI% (MDA-MB-435): — (GI% < 10) | GI% (NCI/ADR-RES): 37.17% | GI% (OVCAR-3): — (GI% < 10) | GI% (RPMI-8226): — (GI% < 10) | GI% (HOP-62): 16.84% | GI% (HOP-62; Table 1): — (GI value > 70%) | GI% (SNB-75): 23.60% | GI% (SNB-75; Table 1): — (GI value > 70%) | GI% (SR; Table 1): — (GI value > 70%) | GI% (NCI-H23): 12.73% | GI% (NCI-H460): 13.27% | GI% (COLO 205): — (GI% < 10) | GI% (UO-31): 26.71% | GI% (M14): — (GI% < 10) | GI% (IGROV1): — (GI% < 10) | GI% (HCT-15): — (GI% < 10) | GI% (OVCAR-8): 48.04% | GI% (SK-MEL-2): — (GI% < 10) | GI% (BT-549): — (GI% < 10) | GI% (RXF 393): 28.91% | GI% (RXF 393; Table 1): — (GI value > 70%) | GI% (A498): — (GI% < 10) | GI% (CCRF-CEM): — (GI% < 10) | GI% (MDA-MB-468): 14.26% | Mean GI% (NCI60 cell lines panel): 16.01% | GI% (HS 578T): 24.34% | GI% (HS 578T; Table 1): — (GI value > 70%) | GI% (SK-MEL-28): — (GI% < 10) | GI% (HOP-92): 19.25% | GI% (SF-295): 25.73% | GI% (MDA-MB-231/ATCC): 39.26% | GI% (786–0; Table 1): 84.82% | GI% (LOX IMVI): 10.55% | GI% (KM12): — (GI% < 10) | GI% (T-47D): 25.99% | GI% (SN12C): 17.08% | GI% (NCI-H522): 25.94% | GI% (HT29): — (GI% < 10) | GI% (SF-268): 24.67% | GI% (HL-60(TB)): 20.88% | GI% (CAKI-1): 24.10% | GI% (UACC-257): — (GI% < 10) | GI% (TK-10): 17.90% | GI% (DU-145): — (GI% < 10) | GI% (SK-MEL-5): — (GI% < 10) | GI% (EKVX): — (GI% < 10) | GI% (MCF7): — (GI% < 10) | GI% (SW-620): — (GI% < 10) | GI% (OVCAR-5): — (GI% < 10) | GI% (K-562): — (GI% < 10) | GI% (K-562; Table 1): — ^b (GI value > 70%) | GI% (ACHN): 26.83% | GI% (HCC-2998): — (GI% < 10) | GI% (MALME-3M): — (GI% < 10) | GI% (SNB-19): 18.35% | GI% (SF-539): 45.33% | GI% (SF-539; Table 1): — (GI value > 70%) | GI% (OVCAR-4; Table 1): 73.14% | GI% (UACC-62): 11.33% | GI% (PC-3): — (GI% < 10)

N#Cc1c(-c2ccc(F)cc2)nc(SCc2ccc([N+](=O)[O-])cc2)[nH]c1=O [2c, 4-(4-Fluorophenyl)-2-((4-nitrobenzyl)thio)-6-oxo-1,6-dihydropyrimidine-5-carbonitrile]
GI% (A549/ATCC): — (GI% < 10) | GI% (U251): 13.78% | GI% (MOLT-4): 24.34% | GI% (SK-OV-3): — (GI% < 10) | GI% (HCT-116): 22.23% | GI% (NCI-H226): 22.53% | GI% (MDA-MB-435): — (GI% < 10) | GI% (NCI/ADR-RES): 12.03% | GI% (OVCAR-3): — (GI% < 10) | GI% (RPMI-8226): 14.16% | GI% (HOP-62): — (GI% < 10) | GI% (SNB-75): — (GI% < 10) | GI% (SR): — (GI% < 10) | GI% (NCI-H23): — (GI% < 10) | GI% (NCI-H460): — (GI% < 10) | GI% (COLO 205): — (GI% < 10) | GI% (UO-31): 11.53% | GI% (M14): — (GI% < 10) | GI% (IGROV1): — (GI% < 10) | GI% (HCT-15): 13.42% | GI% (OVCAR-8): — (GI% < 10) | GI% (SK-MEL-2): — (GI% < 10) | GI% (BT-549): — (GI% < 10) | GI% (RXF 393): — (GI% < 10) | GI% (A498): — (GI% < 10) | GI% (CCRF-CEM): 15.45% | GI% (MDA-MB-468): — (GI% < 10) | Mean GI% (NCI60 cell lines panel): — (GI% < 10) | GI% (HS 578T): — (GI% < 10) | GI% (SK-MEL-28): — (GI% < 10) | GI% (HOP-92): 33.01% | GI% (SF-295): 10.37% | GI% (MDA-MB-231/ATCC): — (GI% < 10) | GI% (786–0): — (GI% < 10) | GI% (LOX IMVI): 14.24% | GI% (NCI-H322M): — (GI% < 10) | GI% (KM12): — (GI% < 10) | GI% (T-47D): 23.03% | GI% (SN12C): 14.07% | GI% (NCI-H522): 30.52% | GI% (HT29): 37.56% | GI% (SF-268): — (GI% < 10) | GI% (HL-60(TB)): 49.95% | GI% (CAKI-1): 10.99% | GI% (UACC-257): — (GI% < 10) | GI% (TK-10): — (GI% < 10) | GI% (DU-145): — (GI% < 10) | GI% (SK-MEL-5): 11.85% | GI% (EKVX): 12.04% | GI% (MCF7): — (GI% < 10) | GI% (SW-620): 10.78% | GI% (OVCAR-5): — (GI% < 10) | GI% (K-562): 31.45% | GI% (ACHN): — (GI% < 10) | GI% (HCC-2998): — (GI% < 10) | GI% (MALME-3M): — (GI% < 10) | GI% (SNB-19): — (GI% < 10) | GI% (SF-539): — (GI% < 10) | GI% (OVCAR-4): — (GI% < 10) | GI% (UACC-62): 11.42% | GI% (PC-3): 18.97%
